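Compound exposure: 48 hours, 5 concentrations, 96-well plates. GI50 marks 50% less growth. TGI is the concentration that stops growth completely.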
Tests used:
Assay in all cases: NCI anticancer screen, dose series, 48 h
ACHN renal = system: ACHN renal
SF-268 CNS = system: SF-268 CNS
OVCAR-5 ovarian = system: OVCAR-5 ovarian
SW-620 colon = system: SW-620 colon
HCC-2998 colon = system: HCC-2998 colon
SN12C renal = system: SN12C renal
MDA-MB-231 breast = system: MDA-MB-231 breast
SNB-75 CNS = system: SNB-75 CNS
NCI-H23 lung = system: NCI-H23 lung
A549 NSCLC = system: A549 NSCLC
OVCAR-3 ovarian = system: OVCAR-3 ovarian
UACC-62 melanoma = system: UACC-62 melanoma
LOX IMVI melanoma = system: LOX IMVI melanoma
HOP-92 NSCLC = system: HOP-92 NSCLC
K-562 leukemia = system: K-562 leukemia
DU-145 prostate = system: DU-145 prostate
KM12 colon = system: KM12 colon
HOP-62 NSCLC = system: HOP-62 NSCLC
UO-31 renal = system: UO-31 renal
OVCAR-8 ovarian = system: OVCAR-8 ovarian
HCT-116 colon = system: HCT-116 colon
OVCAR-4 ovarian = system: OVCAR-4 ovarian
A498 renal = system: A498 renal
RPMI-8226 leukemia = system: RPMI-8226 leukemia
SK-MEL-2 melanoma = system: SK-MEL-2 melanoma
HT29 colon = system: HT29 colon
CCRF-CEM leukemia = system: CCRF-CEM leukemia
MALME-3M melanoma = system: MALME-3M melanoma
IGROV1 ovarian = system: IGROV1 ovarian
U251 CNS = system: U251 CNS
HS 578T breast = system: HS 578T breast
MOLT-4 leukemia = system: MOLT-4 leukemia
MDA-MB-435 = system: MDA-MB-435
M14 melanoma = system: M14 melanoma
SF-539 CNS = system: SF-539 CNS
HL-60(TB) leukemia = system: HL-60(TB) leukemia
NCI/ADR-RES ovarian = system: NCI/ADR-RES ovarian
NCI-H226 lung = system: NCI-H226 lung
SNB-19 CNS = system: SNB-19 CNS
CAKI-1 renal = system: CAKI-1 renal
SK-MEL-5 melanoma = system: SK-MEL-5 melanoma
TK-10 renal = system: TK-10 renal
NCI-H460 lung = system: NCI-H460 lung
T-47D breast = system: T-47D breast
PC-3 prostate = system: PC-3 prostate
SF-295 CNS = system: SF-295 CNS
SK-OV-3 ovarian = system: SK-OV-3 ovarian
UACC-257 melanoma = system: UACC-257 melanoma
SK-MEL-28 melanoma = system: SK-MEL-28 melanoma
EKVX NSCLC = system: EKVX NSCLC
HCT-15 colon = system: HCT-15 colon
NCI-H522 lung = system: NCI-H522 lung
MCF7 breast = system: MCF7 breast
RXF 393 renal = system: RXF 393 renal

SMILES: COc1ccc2nc(-c3ccc(-c4noc(-c5cc(OC)c(OC)c(OC)c5)n4)cc3)[nH]c2c1
- GI50 (ACHN renal): 28.2 µM
- TGI (ACHN renal): > 100 µM
- GI50 (SF-268 CNS): 7.13 µM
- TGI (SF-268 CNS): 45.6 µM
- GI50 (OVCAR-5 ovarian): 16.7 µM
- TGI (OVCAR-5 ovarian): 53.8 µM
- GI50 (SW-620 colon): 5.89 µM
- TGI (SW-620 colon): 56.5 µM
- GI50 (HCC-2998 colon): 35.5 µM
- TGI (HCC-2998 colon): > 100 µM
- GI50 (SN12C renal): 13.2 µM
- TGI (SN12C renal): 31.3 µM
- GI50 (MDA-MB-231 breast): 2.65 µM
- TGI (MDA-MB-231 breast): 13.9 µM
- GI50 (SNB-75 CNS): 12.5 µM
- TGI (SNB-75 CNS): 27.4 µM
- GI50 (NCI-H23 lung): 4.1 µM
- TGI (NCI-H23 lung): 20 µM
- GI50 (A549 NSCLC): 5.65 µM
- TGI (A549 NSCLC): 20.3 µM
- GI50 (OVCAR-3 ovarian): 4.25 µM
- TGI (OVCAR-3 ovarian): 12.9 µM
- GI50 (UACC-62 melanoma): 14 µM
- TGI (UACC-62 melanoma): 33.4 µM
- GI50 (LOX IMVI melanoma): 13.3 µM
- TGI (LOX IMVI melanoma): 34.6 µM
- GI50 (HOP-92 NSCLC): 14.3 µM
- TGI (HOP-92 NSCLC): 33.5 µM
- GI50 (K-562 leukemia): 1.2 µM
- TGI (K-562 leukemia): > 100 µM
- GI50 (DU-145 prostate): 9.48 µM
- TGI (DU-145 prostate): 28.3 µM
- GI50 (KM12 colon): 7.52 µM
- TGI (KM12 colon): 81.8 µM
- GI50 (HOP-62 NSCLC): 4.44 µM
- TGI (HOP-62 NSCLC): 16.8 µM
- GI50 (UO-31 renal): 18.9 µM
- TGI (UO-31 renal): 38.7 µM
- GI50 (OVCAR-8 ovarian): 4.93 µM
- TGI (OVCAR-8 ovarian): 26.4 µM
- GI50 (HCT-116 colon): 1.9 µM
- TGI (HCT-116 colon): 10.7 µM
- GI50 (OVCAR-4 ovarian): 1.88 µM
- TGI (OVCAR-4 ovarian): 4.79 µM
- GI50 (A498 renal): 28 µM
- TGI (A498 renal): > 100 µM
- GI50 (RPMI-8226 leukemia): 6.02 µM
- TGI (RPMI-8226 leukemia): > 100 µM
- GI50 (SK-MEL-2 melanoma): 18.9 µM
- TGI (SK-MEL-2 melanoma): 51.1 µM
- GI50 (HT29 colon): 2.7 µM
- TGI (HT29 colon): 15.2 µM
- GI50 (CCRF-CEM leukemia): 2.2 µM
- TGI (CCRF-CEM leukemia): > 100 µM
- GI50 (MALME-3M melanoma): 1.67 µM
- TGI (MALME-3M melanoma): 7.51 µM
- GI50 (IGROV1 ovarian): 26.3 µM
- TGI (IGROV1 ovarian): 69.1 µM
- GI50 (U251 CNS): 1.68 µM
- TGI (U251 CNS): 4.88 µM
- GI50 (HS 578T breast): 9.49 µM
- TGI (HS 578T breast): 55.7 µM
- GI50 (MOLT-4 leukemia): 5.29 µM
- TGI (MOLT-4 leukemia): 59.1 µM
- GI50 (MDA-MB-435): 4.27 µM
- TGI (MDA-MB-435): 39.8 µM
- GI50 (M14 melanoma): 5.47 µM
- TGI (M14 melanoma): 22.7 µM
- GI50 (SF-539 CNS): 2 µM
- TGI (SF-539 CNS): 3.83 µM
- GI50 (HL-60(TB) leukemia): 20.2 µM
- TGI (HL-60(TB) leukemia): 81.7 µM
- GI50 (NCI/ADR-RES ovarian): 3.32 µM
- TGI (NCI/ADR-RES ovarian): 23.6 µM
- GI50 (NCI-H226 lung): 22.7 µM
- TGI (NCI-H226 lung): 81.4 µM
- GI50 (SNB-19 CNS): 12.7 µM
- TGI (SNB-19 CNS): 36.8 µM
- GI50 (CAKI-1 renal): 23.4 µM
- TGI (CAKI-1 renal): 54.9 µM
- GI50 (SK-MEL-5 melanoma): 3.25 µM
- TGI (SK-MEL-5 melanoma): 17.3 µM
- GI50 (TK-10 renal): 4.62 µM
- TGI (TK-10 renal): 13 µM
- GI50 (NCI-H460 lung): 4.6 µM
- TGI (NCI-H460 lung): 22.5 µM
- GI50 (T-47D breast): 14.7 µM
- TGI (T-47D breast): 35.9 µM
- GI50 (PC-3 prostate): 20.5 µM
- TGI (PC-3 prostate): > 100 µM
- GI50 (SF-295 CNS): 15 µM
- TGI (SF-295 CNS): 38.3 µM
- GI50 (SK-OV-3 ovarian): 25.3 µM
- TGI (SK-OV-3 ovarian): 64.8 µM
- GI50 (UACC-257 melanoma): 17.1 µM
- TGI (UACC-257 melanoma): 46.9 µM
- GI50 (SK-MEL-28 melanoma): 9.59 µM
- TGI (SK-MEL-28 melanoma): 27 µM
- GI50 (EKVX NSCLC): 26.2 µM
- TGI (EKVX NSCLC): 84.9 µM
- GI50 (HCT-15 colon): 1.49 µM
- TGI (HCT-15 colon): 13.3 µM
- GI50 (NCI-H522 lung): 6.89 µM
- TGI (NCI-H522 lung): 45.3 µM
- GI50 (MCF7 breast): 1.08 µM
- TGI (MCF7 breast): 22.1 µM
- GI50 (RXF 393 renal): 5.24 µM
- TGI (RXF 393 renal): 19.1 µM

From PubChem BioAssay (NCI)
